Results reported in PubChem BioAssay AID2337 (Sanford-Burnham Center for Chemical Genomics, 2010).

System: TNFa-induced NF-kB reporter cells, inhibition
Assay: analog potency on TNFa NF-kB signaling – cell-based, revised, SAR follow-up (AID 2337)

O=C(Nc1nc2c(F)cc(F)cc2s1)c1ccc([N+](=O)[O-])o1
IC50: 19.7 µM

CC1Sc2ccc(S(=O)(=O)N3CCC(C(=O)Nc4ccc(Cl)cc4)CC3)cc2NC1=O (configuration not stated)
IC50: 3.15 µM
